pKd: −log10 of the molar value. Each block holds one molecule with its values, some of them ahead of it.
Key:
[1] = molecular target: T1, human cardiac myosin S2 peptide (Homo sapiens, UniProt P12883); test: Competitive ELISA (cELISA) against polyclonal anti-S2 antibody; type: binding; conditions: curve fit of OD vs peptide concentration; read-out: binding efficiency (Kd) to human cardiac myosin S2 peptide
T1 construct: The 19 residue peptide was chemically synthesized
Protocol: Phosphate buffer saline (PBS) contained 0.14 M sodium chloride, 2.7 mM potassium chloride, 1.5 mM potassium phosphate monobasic, and 8.1 mM sodium phosphate dibasic with pH 7.4. Detergent buffer was made with 0.05% triton X-100 in PBS, blocking buffer was made with 3% powdered milk in detergent buffer. Assay buffer contained 100 mM potassium phosphate dibasic, 100 mM potassium phosphate monobasic, 1 M potassium chloride and 10 mM magnesium chloride with pH 7.0. Stocks of primary antibody (polyclonal antibody anti-S2), rabbit skeletal myosin, human cardiac myosin S2 peptide, stabilizer and destabilizer peptide. Secondary antibody conjugated with alkaline phosphatase was anti-guinea pig immunoglobulin G (IgG)-alkaline phosphatase (Sigma-Aldrich, catalog number A5062) produced in goat and isolated by affinity chromatography. Substrate was 5-Bromo-4-chloro-3-indolyl phosphate (BCIP) tablets dissolved in 10 ml of distilled water per tablet and 96 well microtiter plate.
Competitive Enzyme Linked Immunosorbent Assay (cELISA) is a classical immunochemical test to validate the binding efficiency and specificity in lower molar concentrations (Yorde et al., 1976; Voller et al., 1978; Walker, J. M. 1996). In this assay the polyclonal antibody anti-S2 raised against single alpha helix of myosin S2 would be used to compete with stabilizer or destabilizer peptide to bind myosin S2 in rabbit skeletal myosin molecule as well as small human cardiac myosin S2 peptide. This cELISA, thus have two molecules polyclonal anti-S2 and stabilizer peptide which have two binding sites one on rabbit skeletal myosin and the other one being on small human cardiac myosin S2. Since both polyclonal anti-S2 and stabilizer peptide were designed against human β-cardiac myosin S2 they both would have a stronger affinity towards the smaller human β-cardiac myosin S2 peptide against the myosin S2 on rabbit skeletal myosin.
To test the binding specificity and efficiency of stabilizer or destabilizer peptide the following setup was used. Start of the setup would be to coat the wells with rabbit skeletal myosin molecule and add appropriate amount human cardiac myosin S2 peptide that would bind the primary polyclonal anti-S2 antibody and when washed there won't be enough primary polyclonal anti-S2 antibody to bind myosin S2 of rabbit skeletal myosin adsorbed on the wells. When alkaline phosphatase conjugated secondary antibody is added on to the wells, it won't have enough or none primary polyclonal anti-S2 antibody to bind. After addition of color developing BCIP substrate to the wells it would lead to low or no color development leading to lower optical density (OD). […]

[2] = molecular target: skeletal muscle myosin S2 peptide (MYH2) (Homo sapiens, UniProt Q9UKX2); test: GFS, uncoiling of skeletal myosin S2 peptide dimer; type: biochemical; design: host or cells: chemical synthesis; conditions: length 10 nm, absence of anti-S2 peptides, ± SEM
skeletal muscle myosin S2 peptide (MYH2), sequence (Q9UKX2 918-953 limits assumed): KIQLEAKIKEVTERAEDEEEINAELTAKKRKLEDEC
From the text: (§1) 3-aminopropyltriethoxysilane, acetone, coupling buffer (0.01 M pyridine in water with pH 6.0), 5% glutaraldehyde, quenching solution (1 M glycine in water with pH 7.0), blocking buffer (0.01 M Tris, 0.1% sodium azide, 0.1% bovine serum albumin, 0.15 M sodium chloride, and 0.001 M ethylenediaminetetraacetic acid with pH 7.0), wash buffer (0.01 M Tris, 0.1% sodium azide, 0.15 M sodium chloride, and 0.001 M ethylenediaminetetraacetic acid with pH 7.0) low salt buffer (0.1 M potassium chloride, 0.02 M imidazole, 5 mM magnesium chloride, with pH 7.0), 1-ethyl-3-(3-dimethyaminopropyl) carbodiimide, N-hydroxysuccinamide, iodoacetamide-succinimidyl ester, 8M urea solution (50 mM imidazole and 0.1 mM tris (2-carboxyethyl) phosphine with pH 7.0) monodisperse silica beads, glass slides, glass coverslips, vacuum grease, rabbit skeletal myosin, purified actin (G-actin), 1 μM human β-cardiac myosin S2 peptide, 1 μM human β-cardiac mutants myosin S2 peptide (E930del and E924K), 1 μM human skeletal myosin S2 peptide, 1 μM human smooth myosin S2 peptide, stabilizer peptide, and destabilizer peptide. A light microscope with an objective lens of 10× was mounted on an alt-azimuthal mount. A digital video camera of Sony, XCD-V60 was replaced with the ocular lenses. Extension springs on steel bracket held the alt-azimuthal mount suspended.
(§2) Gravitational force spectroscopy (GFS), is a single molecule force spectroscopy that utilizes gravitational force to measure absolute length of a single molecule at the given force calculated by the density of the bead suspending the molecule. This technique was discovered and developed in Root lab, which measures the forces in piconewton and sub-piconewton levels. Other than absolute length of a molecule, GFS measures force range required to uncoil, stretch or extend the molecule yielding a force-distance profile for the suspended molecule. Besides that, based on the force-distance profile, number of amino acids within the molecule can be calculated. […] The GFS allowed to test the flexibility or stability of a single molecule of myosin S2 peptide and also for the S2 peptides treated with anti-S2 peptides. Flexibility of myosin S2 is not dependent on assembly myosin as a thick filament or myosin in its single molecule form. The flexibility of myosin S2 region was reported to be similar in single molecule form or myosin in a thick filament assembly thus it could be conceived that the changes seen on flexibility of myosin S2 in presence of anti-S2 peptides would correlate to changes in myosin S2 flexibility for myosin in a thick filament form (Singh et al., 2018). The schematic diagram of GFS is shown below (schematic diagrams of GFS which has two modes: (FIG. 15) free-fall mode, (FIG. 16) rotational mode.
Free fall mode, another measurement variant of GFS which allows the user to get a force distance profile on a single molecule experiencing the gravitational force. Free fall mode allows a variable force by the virtue of gravity to be exerted on a single molecule. The GFS setup, light microscope with mounted camera on spring on alt-azimuthal platform, can be dropped. The start of free-fall mode force applied to the bead is zero or close to zero. […] As the platform goes towards equilibrium, trace of the acceleration decays. During the free fall mode, GFS has a single molecule which is suspended within an immobile edge and mobile bead will now experience the variable force which would be calculated by the product of mass of the bead and the acceleration of the GFS.
The product of the GFS acceleration and the mass of the bead will provide a force trace for the single molecule tethered between the immobile edge and mobile bead. The image processing would provide distance trace for the single molecule experiencing the free fall by the GFS. When this force trace is aligned with distance trace will yield the extension or the stretch experience by the single molecule under variable forces. […]

[3] = tested on: primary polyclonal anti-S2 antibody; test: cELISA of human cardiac myosin S2 peptide against rabbit skeletal myosin S2 for antibody; type: binding; conditions: antibody diluted 1:64
Protocol: To evaluate the amount of cardiac myosin S2 peptide that would compete with rabbit skeletal myosin S2 to bind primary polyclonal anti-S2 antibody, the microtiter plate was coated with rabbit skeletal myosin first to that was added two fold dilutions of human cardiac myosin S2 peptide from 1000 nanomolar (nM) to 1 nM. Following this 1:64 diluted primary polyclonal antibody was added. After the washing step, secondary antibody is added followed by BCIP and development of color or OD was recorded and the video was analyzed by Image J. The OD will decrease as the concentration of human cardiac myosin S2 increases. […] The minimum amount of human cardiac myosin S2 peptide that would bind primary polyclonal anti-S2 antibody was at 62.5 nM (FIG. 36). Such a high binding efficiency was expected, since primary polyclonal anti-S2 antibody was raised against the same human cardiac myosin S2.

[4] = molecular target: T2, cardiac muscle myosin S2 peptide (MYH7) (Homo sapiens, UniProt P12883); test: Gravitational force spectroscopy (GFS), uncoiling of cardiac myosin S2 peptide dimer; type: biochemical; conditions: length 10 nm, absence of anti-S2 peptides, ± SEM
T2 construct: host or cells: chemical synthesis
T2 sequence (P12883 912-947 limits assumed): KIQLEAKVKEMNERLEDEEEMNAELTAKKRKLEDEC
From the text: as §1, §2
GFS set up assembly contains a light microscope that is horizontally mounted on an alt-azimuthal which is suspended with help of extension springs on a steel bracket. To capture both images and videos of suspended molecule, a digital video camera has been placed instead of the ocular lenses. The molecule of interest is tethered between an immobile edge of glass coverslip placed on a glass slide and mobile silica or glass bead. Slide with the molecule of interest in inserted into the light microscope component of GFS. The bead with molecule of interest is imaged through the microscope and then oriented to the direction of gravity vector to allow the maximal gravitation force exerted on to the bead. GFS has two modes, one is called rotational mode or an equilibrium mode which measures the absolute length of a single molecule and the second one is called free fall mode which measures the force required to unwind, uncoil, stretch or extend the molecule of interest.
Free fall mode, another measurement variant of GFS which allows the user to get a force distance profile on a single molecule experiencing the gravitational force. […]

[5] = molecular target: T3, smooth muscle myosin S2 peptide (MYH11) (Homo sapiens, UniProt P35749); test: FRET of smooth muscle myosin S2 peptide dimer with anti-S2 peptides; type: binding; conditions: control, no anti-S2 peptide; read-out: Dissociation Constant (Kd) of S2 peptide dimer
T3 construct: A 21 residue peptide of the S2 region of MYH11 was matched to the previously synthesized S2 peptide; host or cells: chemical synthesis
From the text: Human smooth muscle myosin heavy chain (MYH11) is a part of the non-striated muscle. This gene can be found within esophagus, endometrium, duodenum, etc. A 21 residue peptide of the S2 region of MYH11 was matched to the previously synthesized S2 peptide of cardiac isoform and chemically synthesized 926-946. Generated amino acid sequence used is as follow: • Smooth: NH2-[…]—COOH (SEQ ID NO:11)
Resonance energy probes (donor and acceptor) were covalently attached to synthetic myosin S2 peptides of cardiac muscle, E930del cardiac muscle, E924K cardiac muscle, smooth muscle, and skeletal muscle (Aboonasrshiraz, N., 2020).
Acceptor probe was conjugated to muscle myosin S2 peptides at N-terminus. Muscle myosin S2 peptides were dissolved in 20 mM HEPES buffer at pH 8.0. And FITC was dissolved in few drops of N, N dimethyl formamide. Lastly, FITC and muscle myosin S2 peptide was reacted together in 1 to 1 molar ratio and was let to react for 120 minutes at room temperature. […]
In FRET assay, Fluorescein Isothiocyanate (FITC) functioned as fluorescent acceptor probe and Terbium Diethylene Triamine Pentaacetic Acid-Cytosine (Lanthanide-DTPA-Cytosine) functioned as donor probe. […] Lifetime of donor probe was measured in milliseconds.
The specificity of peptides were later tested on the myosin S2 of the smooth muscle (MYH11). […] Calculated separation distance in presence of the stabilizer peptide was 3.34 nm.

[6] = molecular target: T4, cardiac muscle myosin S2 peptide E930del (MYH7 E930del) (Homo sapiens, UniProt P12883, DEL931-931); test: GFS, uncoiling of E930del cardiac myosin S2 peptide dimer; type: biochemical; conditions: for Force required to uncoil S2 molecule: length 10 nm, absence of stabilizer, ± SEM
T4 construct: host or cells: chemical synthesis
T4 sequence (P12883 with tags, fused parts or gaps DEL931-931): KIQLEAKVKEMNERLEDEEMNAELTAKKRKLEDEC
From the text: as §1
as §2, with “The flexibility of myosin S2 region was reported to be similar in single molecule form or myosin in a thick filament assembly thus it could be conceived that the changes seen on flexibility of myosin S2 in presence of anti-S2 peptides would correlate to changes in myosin S2 flexibility for myosin in a thick filament form (Singh et al., 2018). The schematic diagram of GFS is shown below (schematic diagrams of GFS which has two modes: (FIG. 15) free-fall mode, (FIG. 16) rotational mode.” left out
Free fall mode, another measurement variant of GFS which allows the user to get a force distance profile on a single molecule experiencing the gravitational force. […] During the free fall mode, GFS has a single molecule which is suspended within an immobile edge and mobile bead will now experience the variable force which would be calculated by the product of mass of the bead and the acceleration of the GFS. […]

pKd [1]: 8.86
Molecule: C[C@H](NC(=O)[C@H](CCCCN)NC(=O)[C@H](Cc1ccccc1)NC(=O)[C@H](CCCCN)NC(=O)[C@H](CCCCN)NC(=O)[C@H](CCCCN)NC(=O)[C@H](CCCCN)NC(=O)[C@H](CCCCN)NC(=O)[C@H](CCCCN)NC(=O)[C@H](CCCCN)NC(=O)[C@@H](N)CCCCN)C(=O)N[C@@H](CCCCN)C(=O)N[C@@H](CCCCN)C(=O)N[C@@H](CCCCN)C(=O)N[C@@H](CCCCN)C(=O)N[C@@H](CCCCN)C(=O)N[C@@H](CCCCN)C(=O)O [stabilizer peptide]

Force required to uncoil S2 molecule [2]: 4.50E−01 ± 5.56E−02 pN | Force required to uncoil S2 molecule ([2]; listed as skeletal muscle myosin S2): 4.50×10^−1±5.56×10^−2 pN
Molecule: H-EVTERAEDEEEINAELTAK-OH [Skeletal Myosin S2, reference compound]

Molecule: H-EMNERLEDEEEMNAELTAK-OH [Cardiac Myosin S2, reference compound]
minimum amount that would bind primary polyclonal anti-S2 antibody [3]: 62.5 nM | Force required to uncoil S2 molecule [4]: 8.63E−01 ± 7.45E−02 pN | Force required to uncoil S2 molecule ([4]; listed as cardiac muscle myosin S2): 8.63×10^−1±7.45×10^−2 pN

pKd [5]: 6.52
Molecule: H-EMEARLEEEEDRGQQLQAERK-OH [Smooth Myosin S2, reference compound]

Force required to uncoil S2 molecule [6]: 4.11E−01 ± 2.97E−02 pN | Force required to uncoil S2 molecule ([6]; listed as E930del): 4.11×10^−1±2.97×10^−2 pN | mechanical instability compared to wild type cardiac muscle myosin S2 ([6]; no anti-S2 peptide): 2.10 times
Molecule: H-EMNERLEDEEMNAELTAK-OH [Cardiac Myosin S2 Mutant, E930del]
